From patent US8114862B2, “TGR5 modulators and methods of use thereof” (Intercept Pharmaceuticals, Inc., priority 2008, dated 2012)

Experiments:
[1] = tested on: Diet-Induced Obesity Mouse Model; assay: Diet-induced obesity mouse model (Example 9); type: in vivo
TGR5+/+ and TGR5-/- mice [2] = assay: OGTT in HF-fed TGR5+/+ and TGR5-/- mice before and after treatment; type: in vivo, mouse; settings: for body weight after treatment: HF diet, 30 mg/kg/d 4 weeks
Protocol: […]. […] […]; not statistically different). […]; not statistically different).
(§1) Animals were housed and bred according to standardized procedures (Argmann and Auwerx, 2006b). Age-matched male mice were used for all experiments. Genetically engineered mouse models (GEMMs), i.e., TGR5-Tg and TGR5^−/− mice, were generated as described in the Supplemental Data. […]; Research Diets) for at least 8 weeks, as mentioned in the text and figure legends. […] Mouse phenotyping experiments were performed according to EMPRESS protocols (see, for example, Empress (European Mouse Phenotyping Resource of Standardised Screening) website) and were aimed to assess food and water intake, body composition (Argmann et al., 2006a, Curr. Protoc. Mol. Biol. Chapter 29, Unit 29A, 23), energy expenditure (Argmann et al., 2006a, Curr. Protoc. Mol. Biol. Chapter 29, Unit 29A, 23), glucose and lipid homeostasis (Argmann et al., 2006b, Curr. Protoc. Mol. Biol. Chapter 29, Unit 29A, 22); Heikkinen et al., 2007, Curr. Protoc. Mol. Chapter. 29, Unit 29B, 23; Mataki et al., 2007, Mol. Cell. Biol. 27, 8330), and plasma biochemistry (Argmann and Auwerx, 2006a, Curr. Protoc. Mol. Biol. Chapter 29, Unit 29A, 22). Tissues and blood were collected and processed for histopathology, blood chemistry, and gene expression according to standardized procedures (Argmann and Auwerx, 2006a; Feige et al., 2008b; Mark et al., 2007; Watanabe et al., 2006). Hyperinsulinemic euglycemic clamp studies were performed as described (Feige et al., 2008b), with minor modifications including a change in the initial insulin bolus (30 mU/kg) and insulin infusion rate (10 mU/min/kg). Plasma GLP-1 levels were measured by ELISA (Millipore) on blood collected by retro-orbital puncture. […].

primary brown adipocytes = assay: O2 consumption in primary brown adipocytes; type: cell-based, mouse; settings: treated for 12 hr, 3 μM
bovine serum albumin = bovine serum albumin (Bos taurus, UniProt P02769); assay: Albumin binding by equilibrium dialysis; type: in vitro ADME; settings: 100 μM BA in 5% bovine serum albumin-saline, pH 7.2
Sequence of bovine serum albumin (P02769 25-607): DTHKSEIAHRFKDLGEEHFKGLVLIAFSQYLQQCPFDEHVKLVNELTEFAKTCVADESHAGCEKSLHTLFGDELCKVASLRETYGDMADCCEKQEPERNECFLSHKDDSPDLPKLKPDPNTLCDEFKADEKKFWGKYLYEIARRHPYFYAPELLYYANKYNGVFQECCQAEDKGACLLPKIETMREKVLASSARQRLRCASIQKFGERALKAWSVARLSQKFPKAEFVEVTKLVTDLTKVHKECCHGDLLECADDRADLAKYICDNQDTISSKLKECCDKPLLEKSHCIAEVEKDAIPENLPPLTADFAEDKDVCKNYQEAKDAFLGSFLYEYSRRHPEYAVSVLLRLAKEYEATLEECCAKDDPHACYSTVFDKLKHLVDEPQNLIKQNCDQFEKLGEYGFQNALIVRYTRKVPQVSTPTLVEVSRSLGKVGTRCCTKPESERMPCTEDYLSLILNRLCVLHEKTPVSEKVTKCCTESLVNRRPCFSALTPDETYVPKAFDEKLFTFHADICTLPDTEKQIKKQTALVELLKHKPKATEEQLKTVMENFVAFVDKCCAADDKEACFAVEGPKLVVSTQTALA
Protocol: The extent of albumin binding was evaluated by equilibrium dialysis at a fixed BA-albumin ratio. BA was dissolved at a concentration of 100 μM in 5% bovine serum albumin-saline solution (pH 7.2) and left to stand for 24 h at 25° C. Two milliliters of this solution was dialyzed in cellulose sacs having a molecular weight cut-off of 12-14,000 against 25 ml of saline solution. The system was equilibrated by mechanical gently shaking for 72 h at 25° C. BA concentrations of the dialyzed solution (corresponding to the free unbound fraction) and of the starting solution were determined with HPLC-ESI-MS/MS in the same conditions of the previous analysis.
The percent of albumin binding was calculate from the initial BA concentration and from the unbound concentration in the dialyzed fraction.

STC-1 cells = assay: STC-1 cell experiments (Cox activity, oxygen consumption, ATP/ADP, GLP-1 release); type: cell-based, mouse
TGR5+/+ and TGR5-/- mice [3] = assay: Plasma GLP-1 after oral glucose challenge in TGR5+/+ and TGR5-/- mice; type: in vivo, mouse; settings: for GLP-1 release after a glucose challenge: TGR5+/+ mice
Protocol: as §1
To further establish a role of TGR5 signaling in the maintenance of glucose homeostasis, we assessed the glucose tolerance of germline TGR5-deficient mice (TGR5^−/−), generated by breeding mice in which the TGR5 allele was floxed with CMV-Cre transgenic mice. […].

in vitro = settings: human, HepG2 cells

With `CC[C@H]1[C@@H](O)[C@@H]2[C@H](C[C@H](O)[C@]3(C)[C@@H]([C@H](C)C[C@H](C)C(=O)O)CC[C@@H]23)[C@@]2(C)CC[C@@H](O)C[C@@H]12` [Ih3e, 6α-ethyl-(23S)-methyl-3α,7α,12α trihydroxy-5β-cholan-24-oic acid] the plasma insulin levels ([1]; after 10 weeks, chow fed and high fat fed mice vs vehicle) was “increased”, the glucose levels ([1]; after 12 weeks, high fat fed mice) was “lower” and the food/water intake ([1]; high fat diet vs vehicle) was “slight increase”. For the same molecule, the glucose tolerance ([1]; high fat fed mice) was “improves glucose tolerance”, the “percentage of change in body, organ and adipose tissue weight compared to chow diet” value ([1]; high fat fed mice) was “reduced percentage change” and the blood glucose ([1]; high fat fed mice vs vehicle) was “lower”. The heart rate ([1]; high fat fed mice vs vehicle) was “lower heart rate”, the “liver enzymes (LDH, ASAT, ALAT)” value ([1]; high fat fed mice vs vehicle) was “lower” and the “plasma lipids (total cholesterol, HDL-chol, LDL-chol, triglycerides)” value ([1]; high fat fed mice vs vehicle) was “lower”. The “insulin levels after a test meal” value ([1]; high fat fed mice vs vehicle, at about 12 minutes) was “peaked to higher levels”, the body weight gain ([1]; high fat fed mice, 16 weeks, vs vehicle) was “less weight gain” and the “insulin secretion during oral glucose challenge” value (TGR5+/+ and TGR5-/- mice [2]; TGR5+/+ fed a HF diet) was “normalization of insulin secretion”. The glucose tolerance (TGR5+/+ and TGR5-/- mice [2]; TGR5+/+ fed a HF diet, 4 weeks 30 mkd) was “significantly improved glucose tolerance”, the “body weight after treatment” value (TGR5+/+ and TGR5-/- mice [2]; TGR5+/+ mice) was 43.50 ± 3.47 g and the “effects on glucose tolerance and insulin secretion” value (TGR5+/+ and TGR5-/- mice [2]; TGR5-/- mice) was “blunted”. For the same molecule, the “body weight after treatment” value (TGR5+/+ and TGR5-/- mice [2]; TGR5-/- mice) was 52.30 ± 2.72 g, the “O2 consumption after FCCP” value (primary brown adipocytes) was “significantly more pronounced” and the “Albumin Binding” value (bovine serum albumin) was 62%. The Cox activity (STC-1 cells) was “cAMP-dependent increase in Cox activity”, the cellular oxygen consumption (STC-1 cells) was “increase in cellular oxygen consumption” and the “impact on GLP-1 release” value (STC-1 cells; prevented by RNA interference or MDL-12-330A) was “enhanced by TGR5 overexpression”. For the same molecule, the “GLP-1 release after a glucose challenge” value (TGR5+/+ and TGR5-/- mice [3]; DPP4 inhibitor sitagliptin coadministered) was “markedly more pronounced”, the “GLP-1 release after a glucose challenge” value (TGR5+/+ and TGR5-/- mice [3]; preadministration 30 mg/kg oral) was “moderately increased GLP-1 release” and the “effects on plasma GLP-1 levels” value (TGR5+/+ and TGR5-/- mice [3]; TGR5-/- mice) was “blunted”. For the same molecule, the EC50 at 4 h (in vitro) was over 1000 µM.
